From paper PMC9014415, “Repositioning of a Diaminothiazole Series Confirmed to Target the Cyclin-Dependent Kinase CRK12 for Use in the Treatment of African Animal Trypanosomiasis” (Journal of Medicinal Chemistry, 2022) come the findings set out here.

Structures are written as SMILES.

Data set [1] concerns T. b. brucei. The data set can be described thus: In vitro drug sensitivity assay, bloodstream-form T. b. brucei. Type of data set: cell-based. The conditions noted are these: Trypanosoma brucei, n = 12. The procedure:
1.1 In vitro drug sensitivity assays - Trypanosoma brucei brucei
Drug sensitivity assays were carried out with bloodstream-form (BSF) T. b. brucei ‘single marker’ S427 cells grown at 37°C with 5% CO2 in HMI-9T medium,1 as previously described.2 1.2 In vitro drug sensitivity assays - Trypanosoma congolense
EC50 values for test compounds against T. congolense (IL3000 strain) were conducted as previously described3 with minor modifications.4 Briefly, trypanosome cell densities were determined using a CASY cell counter (Schärfe) and diluted to a seeding density of 2 x 105 trypanosomes/mL. […] Absorbance was read using a SpectraMax (Gemini XS) fluorescence reader at an excitation wavelength of 536 nm and an emission wavelength of 588 nm. EC50 values were determined using SOFTmax Pro 5.2 analysis software. […]
Since T. vivax cannot be cultured axenically, BSF trypanosomes were harvested from an infected mouse with high parasitemia via cardiac puncture and used directly in ex vivo assays. EC50 values were determined against T, vivax (STIB 719/ ILRAD 560) as previously described3, with minor modifications. Briefly, cell densities were determined using a Neubauer chamber and then diluted to a seeding density of 4 x 105 trypanosomes / mL. […] Absorbance was read using a SpectraMax (Gemini XS) fluorescence reader at an excitation wavelength of 536 nm and an emission wavelength of 588 nm. […]

The nature of data set [2]: Protein plasma binding. The conditions noted are these: mouse. Type of data set: in vitro ADME. The procedure:
2.4 Protein plasma binding
This was determined as previously described.6
2.5 PK and maximum tolerated dose - mouse
PK studies in female NMRI mice (Figure S1): Test compounds 1, 2 and 10 were dosed SC at 10 mg free base/kg (dose volume 10 mL/kg; dose vehicle: 5% (v/v) DMSO, 40% polyethylene glycol 400 (PEG400) and 55% deionized water) to female NMRI mice (n = 3). Blood samples (10 μL) were taken from each mouse at 0.08, 0.25, 0.5, 1, 2, 4, 6, 8 h post dose (24 h post dose for compounds 2 and 10 only) and mixed with two volumes of deionized water (20 μL). Alternatively, compound 2 was delivered for 48 h via SC implanted ALZET osmotic pumps (10, 25 and 50 mg free base/mL, vehicle: 50% DMSO and 50% deionized water) to the female NMRI mouse (n = 3). Blood samples (10 μL) from each mouse were taken at 1, 3, 6, 24, 30 and 48 h post-dose and mixed with two volumes of deionized water (20 μL).
Compound 1 as free base in 5% DMSO; 40% PEG400; 55% MilliQ water was dosed daily subcutaneously with doses of 50 mg/kg, 100 mg/kg and 300 mg/kg for 3 days.
2.6 PK and formulation studies - male Sprague rats […]

In general, EC50 refers to the concentration at which the effect is half-maximal. One may read the fraction unbound as free concentration divided by total concentration. A low value points to little free substance.

`CC(C)CS(=O)(=O)N[C@H]1CC[C@H](Nc2nc(N)c(C(=O)c3c(F)cccc3F)s2)CC1` [Compound 1, N-((trans)-4-((4-Amino-5-(2,6-difluorobenzoyl)thiazol-2-yl)amino)cyclohexyl)-2-methylpropane-1-sulfonamide] gave an EC50 in data set [1] of 1.3 nM. This compound yielded a fraction unbound in data set [2] of 0.16.
